# Measurements: patent publication US11497796B2, “Agents directed against a cis RGMa/neogenin interaction or lipid rafts and use of the same in methods of treatment” (UNIVERSITY HEALTH NETWORK, priority 2013, dated 2022)
# T1: 4Ig-domain of Neogenin (His-4Ig) (Gallus gallus, UniProt Q90610)
# T1 construct: 6-His (N); myc (C); 6-His (C); made in house
# T1 sequence (Q90610 1-383): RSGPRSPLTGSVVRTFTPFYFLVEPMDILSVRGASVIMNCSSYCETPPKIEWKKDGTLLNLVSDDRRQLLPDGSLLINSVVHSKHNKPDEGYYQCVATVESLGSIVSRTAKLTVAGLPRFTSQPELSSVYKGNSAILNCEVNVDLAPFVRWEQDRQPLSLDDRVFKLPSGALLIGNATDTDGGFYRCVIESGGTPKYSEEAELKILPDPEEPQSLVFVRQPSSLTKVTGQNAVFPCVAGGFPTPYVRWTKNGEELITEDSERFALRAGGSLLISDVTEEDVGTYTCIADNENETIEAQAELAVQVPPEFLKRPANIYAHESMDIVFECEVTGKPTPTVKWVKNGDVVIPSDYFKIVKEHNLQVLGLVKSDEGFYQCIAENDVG
# B1: 4Ig: four immunoglobulin-like domains of Neogenin, amino acids 1 to 383 of Accession No. AAC59662 (SEQ ID NO:1) (protein, listed as Gallus gallus)
# chain: RSGPRSPLTGSVVRTFTPFYFLVEPMDILSVRGASVIMNCSSYCETPPKIEWKKDGTLLNLVSDDRRQLLPDGSLLINSVVHSKHNKPDEGYYQCVATVESLGSIVSRTAKLTVAGLPRFTSQPELSSVYKGNSAILNCEVNVDLAPFVRWEQDRQPLSLDDRVFKLPSGALLIGNATDTDGGFYRCVIESGGTPKYSEEAELKILPDPEEPQSLVFVRQPSSLTKVTGQNAVFPCVAGGFPTPYVRWTKNGEELITEDSERFALRAGGSLLISDVTEEDVGTYTCIADNENETIEAQAELAVQVPPEFLKRPANIYAHESMDIVFECEVTGKPTPTVKWVKNGDVVIPSDYFKIVKEHNLQVLGLVKSDEGFYQCIAENDVGNAQAGAQLIILDLDVAIPTLPPTSLTSATNDHLAPATTGPLPTAPRDVVATLVSTRFIRLTWRTPVSDPQGDNLTYSIFYTKEGINRERVENTSRPGETQVMIQNLMPETVYVFRVVAQNKHGHGESSAPLKVATQPEVQLPGPAPNIRAYAGSPTSVTVTWETPLSGNGEIQNYKLYYMEKGQDSEQDVDVAGLSYTITGLKKYTEYSFRVVAYNKHGPGVSTQDVVVRTLSDVPSAAPQNLTLEARNSKSIMLHWQPPPAGTHSGQITGYKIRYRKVSRKSDVTESVGGTQLFQLIEGLERGTEYNFRIAAMTVNGTGPATDWVSAETFESDLDESRVPEVPSSLHVRPLVTSIVVSWTPPENQNIVVRGYAIGYGIGSPHAQTIKVDYKQRYYTIENLDPSSHYVITLKAFNNVGEGIPLYESAVTRPHSDTSEVDLFVINAPYTPVPDPSPMMPPVGVQASILSHDTIRITWADNSLPKNQKITDARYYTVRWKTNIPANTKYKTANATTLSYLVTGLKPNTLYEFSVMVTKGRRSSTWSMTAHGTTFELVPTSPPKDVTVVSKEGKPRTIIVNWQPPSEANGKITGYIIYYSTDVNAEIHDWVIEPVVGNRLTHQIQELTLDTPYYFKIQARNSKGMGPMSEAVQFRTPKAESSDKMPNDQASGSAGKGSRPVDVGPDYKPPLSGSNSPHGSPTSPLDSNMLLVIIVSVGVITIVIVVIVAVFCTRRTTSHQKKKRAACKSVNGSHKYKGNSKDVKPPDLWIHHERLELKPIDKSPDPNPIMTDTPIPRNSQDITPVDNSMDSNIHQRRNSYRGHESEDSMSTLAGRRGMRPKMMMPFDSQPPQPVISAHPIHSLDNPHHHFHSGSLASPTRSYLHHQVSPWPVGTSMSHSDRANSTESVRNTPSSDTMPASSSQPCADHQDPDSSSGAYLGSAQEEDAAQSLPTAHVRPSHPLKSFAVPAVPAAGSAYDPTLPSTPLLTQQAPSHPVHSVKTASIGTLGRTRPPMPVVVPSAPDVQETTRMLEDSESSYEPDELTKEMAHLEGLMKDLNAITTA
# modifications: Neogenin - Accession No. AAC59662
# Experiments:
# [1] = tested on: 4Ig-domain of DCC; test: AP binding assay on coated DCC-4Ig; settings: closest Neogenin homologue, specificity control
# Experimental: (A) Different RGMa-AP proteins were incubated on wells coated with the 4Ig 6FNIII or BSA. […] Data were average±SEM (n=3 independent experiments), *p<0.005. (B) Quantification of a binding assay where 4Ig-AP and 6FNIII-AP proteins were assayed on wells coated with proteins from different RGMa regions. […] Thus, two N-RGMa fragments were identified (N-Raft and N-RGMa77-113) that bound the 4Ig and 6FNIII domains in Neogenin, respectively. C-RGMa proteins and full length RGMa only bound 6FNIII. Data were average±SEM (n=3 independent experiments), *p<0.005. […] Quantification of a binding assay where N-RGMa-AP was assayed on wells coated with proteins DCC-4Ig and Neogenin-4Ig. In this experiment Neogenin-4Ig but not DCC-4Ig interacted with N-Raft-AP. Data were average±SEM (n=4 independent experiments), *p<0.005. (D) Cis-interaction between the 4Ig domain of Neogenin and N-Raft is required for localization of Neogenin in lipid rafts. HEK-293 cells were transfected with Neogenin and RGMa constructs. BMP2 (100 nM) was added to the medium 1 hour before cells were collected. Western blotting was performed following lipid raft fractionation. Flotillin was used as a marker for lipid raft fractions, whereas the transferrin receptor (TfR) was used as a marker for heavy membrane-fractions. Every experiment was repeated twice. […]
# [2] = target: T1, 4Ig-domain of Neogenin (His-4Ig); test: Pull-down assay with peptide-coated beads; type: binding; settings: Western blot with anti-His
# Experimental: (A) RGMa proteins were incubated on plates coated with 4Ig- or 6FNIII-AP. One C- and one N-RGMa domain (N-RGMa^77-113) interacted with 6FNIII. One N-RGMa domain (N-Raft) interacted with 4Ig. (B) Supernatants (Sup) from cells expressing His-6FNIII or His-4Ig, were pulled down (IP) with beads coated with N-Raft, N-RGMa^50-99, and N-inh. Western Blot was then performed with an anti-His antibody to reveal whether or not His-6FNIII or His-4Ig interacted with the coated beads. […] Data are average±SEM (n=3 independent experiments), *p<0.0001. Scale bar, 100 μm. (E) Chick brains were injected with control peptide (Ctrl; N-RGMa^50-99), 4Ig, N-Raft, or Noggin 1 day before preparing membrane fractionations. In control experiments, Neogenin localized to the Flotillin/RGMa-containing lipid raft fraction (as shown in solid lined boxes). 4Ig, N-Raft, or Noggin shifted Neogenin to heavy fractions.
# Proteins were coupled to activated CNBr Sepharose beads (Pharmacia) according to supplier instructions. Supernatants from transfected cells were added to coupled beads for 2 h at room temperature (RT). Beads were then washed 6× with PBS plus 0.02% Tween 20, and SDS loading buffer was added. Samples were boiled and subjected to Western blotting.
# [3] = tested on: photoreceptor cells; test: Photoreceptor survival in rd1 mice (retinitis pigmentosa model); type: in vivo, mouse
# Experimental: The rd1 mouse model is a model for human RP and carried a loss-of-function mutation in the gene encoding for the β-subunit of the rod photoreceptor cGMP phosphodiesterase-6.2. This loss-of-function mutation led to an accumulation of cGMP, which caused photoreceptor cell death.
# In these studies, intraocular injection of the 4Ig (2 μg/μl) peptide at P9 and P15 was performed and animals were sacrificed at P21 to examine cell survival. […] Injection of 4Ig increased outer nuclear layer (ONL) thickness to about 6 cells (FIG. 19). This measurement was the average thickness of the ONL.
# As described above, cholesterol depletion removes lipid rafts. Specifically, mice were treated with daily […] (IP) injections of MβCD from P9 to P21.
# To examine the effect of reducing cholesterol synthesis on cell survival, AY-9944 was examined in rd1 mice (FIGS. 20 and 21). Rd1 mice were treated using two intra-peritoneal injections of AY-9944, at P9 and P15 and sacrificed at P21.
# [4] = tested on: EAE paralysis; test: EAE mouse model of multiple sclerosis; type: in vivo; settings: 3 μg IV at days 3, 6, 9; after 17 days; control approaching 5
# Experimental: Specifically, whether or not 4Ig reduced paralysis in the EAE model was tested. To induce EAE, C57BL6/J mice were injected with an emulsion of MOGp35-55 peptide (50 μg, day 0) mixed with complete Freund's adjuvant (CFA). On day 2, the animals also received 400 ng of pertussis toxin (PTX) intraperitoneally in order to produce severe and reliable EAE and then were examined for clinical signs in over a 17 day period (FIG. 28).
# At days 3, 6, and 9 post-EAE induction, animals were treated with either 3 μg of 4Ig in PBS (IV injection) or PBS (Control).
# [5] = intraocular injection at P9 and P15
molecule,measurement,setting,value
N-Raft: peptide spanning amino acids 28-73 of RGMa (SEQ ID NO:2) (SPCKILKCNSEFWAATSGSHHLGAEETPEFCTALRAYAHCTRRTAR; N-Raft - amino acids 28-73 of RGMa),interaction with the 4Ig-domain of DCC,[1],No significant interaction
same,pull-down of 4Ig-domain by peptide-coated beads,[2],pulled down
"methyl-β-cyclodextrin [MβCD, reference compound]",average depth of the ONL,[3]; daily injections P9 to P21,about 6 cells
same,increase in the average thickness of the ONL,[3]; daily injections P9 to P21,three-fold
same,photoreceptor survival,[3]; daily injections P9 to P21,photoreceptor survival was improved
same,number of rods within the Outer Nuclear Layer (anti-Rhodopsin),"[3]; injected at P9, P21",dramatic increase in the number of rods
B1,outer nuclear layer (ONL) thickness,"[3]; intraocular injection 2 μg/μl at P9 and P15, P21, control about 2 cells",about 6 cells
same,increase of ONL thickness compared to control mice,[3]; [5],more than three-fold
same,number of photoreceptors within the retina vs control,[3]; [5],significantly improved the number of photoreceptors
same,clinical score,[4],1.4
